Values after ≈ are worked out from the molar mass of the structure shown. Like-named read-outs stand apart in the source and are kept apart here.
Experiments:
S. aureus NRS384 = experiment: Broth minimum inhibitory concentration (MIC) assay 2; assay type: cell-based, Staphylococcus aureus; settings: for MIC: Staphylococcus aureus, read-out: S. aureus Broth MIC
Method: To test the potency of rifamycin analogs of the disclosure in vitro, a broth growth inhibition assay was developed. For the assay, S. aureus NRS384 was grown in Tryptic Soy Broth (TSB) overnight, then sub-cultured 1:50 in fresh TSB and grown for an additional two hours. The culture was then pelleted via centrifugation and washed twice in PBS. The culture was then diluted to 1×10^6 cfu/mL in TSB and 100 μL of the suspension was added per well to a 2 mL dilution plate in triplicate. […] The plates were sealed and incubated at 37° C. with shaking for 24 hours, then 150 μL of each sample was added to 96 well microtiter plates and the OD600 nm was read on a Spectramax i3 Minimax 300.
The broth MIC experiments were assessed in at least two independent experiments and the median value is captured below unless indicated otherwise.

[1] = tested on: intracellular S. aureus NRS384 in THP-1 macrophages; experiment: Intracellular killing assay 2 (rifamycin analogs, S. aureus in THP-1 macrophages); assay type: cell-based, Staphylococcus aureus; settings: Staphylococcus aureus, NRS384, 2 h, read-out: S. aureus Intracellular killing MIC
Method: THP-1 monocytic cell line was grown in media (RMPI+10% FBS+1% Penicillin/Streptomycin), then seeded at a density of 1e5 cells/well in a 96 well plate and differentiated into macrophages for three days prior to infection using 200 nM PMA. An overnight culture of S. aureus NRS384 was grown in RPMI, washed twice with PBS and resuspended at 1e7 cfu/mL in PBS. THP-1 were washed with warm media (RMPI without FBS) to remove the Penicillin/Streptomycin and then infected with the S. aureus suspension at a multiplicity of infection of 10:1 (S. aureus: macrophages). Plates were spun at 300×g for 5 minutes to synchronize adhesion of the bacteria, then incubated at 37° C. for 2 hours. Free-floating bacteria were removed by washing 2× with warm media and remaining extracellular S. aureus were killed by addition of media containing gentamicin (50 ug/mL). […] The compounds were added in media containing 50 µg/mL gentamicin to prevent extracellular growth of S. aureus. After 2 hours, plates were washed 2× with warm RPMI without FBS, and 100 ul of THP-1 lysis buffer (0.1% Triton in PBS) was added to each well. S. aureus survival was enumerated by colony forming units through serial dilution and plating onto TSA.
The intracellular MIC value indicated represents the median value of at least two independent experiments, unless indicated otherwise.

[2] = S. aureus NRS384 in TSB, 24 hours at 37° C., OD600, median of at least two independent experiments
[3] = lowest concentration giving intracellular S. aureus below limit of detection (50 cfu/mL) in THP-1 macrophages, median of at least two experiments

Compound	MIC (S. aureus NRS384; [2]) [µM]	MIC [1, 3] [µM]	MIC (S. aureus NRS384; NRS384, 24 h) [µM]	MIC [1] [µM]	S. aureus Broth MIC (S. aureus NRS384; [2]) [µM]
CO[C@H]1/C=C/O[C@@]2(C)Oc3c(C)c(O)c4c(=O)c(c5oc6cc(OCC7CCCN(C)C7)ccc6nc-5c4c3C2=O)NC(=O)/C(C)=C\C=C\[C@H](C)[C@H](O)[C@@H](C)[C@@H](O)[C@@H](C)[C@H](OC(C)=O)[C@@H]1C (stereo partly shown) [Analog 16f]	0.0156 (≈ 0.0142 µg/mL)	1 (≈ 0.912 µg/mL)			
CO[C@H]1/C=C/O[C@@]2(C)Oc3c(C)c(O)c4c(=O)c(c5oc6cc(OCC7CCN(C)CC7)ccc6nc-5c4c3C2=O)NC(=O)/C(C)=C\C=C\[C@H](C)[C@H](O)[C@@H](C)[C@@H](O)[C@@H](C)[C@H](OC(C)=O)[C@@H]1C [Analog 16g]	0.0156 (≈ 0.0142 µg/mL)	0.2 (≈ 0.182 µg/mL)			
CO[C@H]1/C=C/O[C@@]2(C)Oc3c(C)c(O)c4c(=O)c(c5oc6cc(OCCN7CCN(C)CC7)ccc6nc-5c4c3C2=O)NC(=O)/C(C)=C\C=C\[C@H](C)[C@H](O)[C@@H](C)[C@@H](O)[C@@H](C)[C@H](OC(C)=O)[C@@H]1C [Analog 16h]	0.0156 (≈ 0.0145 µg/mL)	1 (≈ 0.927 µg/mL)			
CO[C@H]1/C=C/O[C@@]2(C)Oc3c(C)c(O)c4c(=O)c(c5oc6cc(OCCN7CCOCC7)ccc6nc-5c4c3C2=O)NC(=O)/C(C)=C\C=C\[C@H](C)[C@H](O)[C@@H](C)[C@@H](O)[C@@H](C)[C@H](OC(C)=O)[C@@H]1C [Analog 16i]	0.0156 (≈ 0.0143 µg/mL)	1 (≈ 0.914 µg/mL)			
CO[C@H]1/C=C/O[C@@]2(C)Oc3c(C)c(O)c4c(=O)c(c5oc6cc(OCC7CCN(C)C7)ccc6nc-5c4c3C2=O)NC(=O)/C(C)=C\C=C\[C@H](C)[C@H](O)[C@@H](C)[C@@H](O)[C@@H](C)[C@H](OC(C)=O)[C@@H]1C (stereo partly shown) [Analog 16j]	0.0625 (≈ 0.0561 µg/mL)	1 (≈ 0.898 µg/mL)			
CO[C@H]1/C=C/O[C@@]2(C)Oc3c(C)c(O)c4c(=O)c(c5oc6cc(OCCN7CCCC7)ccc6nc-5c4c3C2=O)NC(=O)/C(C)=C\C=C\[C@H](C)[C@H](O)[C@@H](C)[C@@H](O)[C@@H](C)[C@H](OC(C)=O)[C@@H]1C [Analog 16k]	0.000977 (≈ 0.000877 µg/mL)	1 (≈ 0.898 µg/mL)			
CO[C@H]1/C=C/O[C@@]2(C)Oc3c(C)c(O)c4c(=O)c(c5oc6cc(OCC7CCCN7C)ccc6nc-5c4c3C2=O)NC(=O)/C(C)=C\C=C\[C@H](C)[C@H](O)[C@@H](C)[C@@H](O)[C@@H](C)[C@H](OC(C)=O)[C@@H]1C (stereo partly shown) [Analog 16l]	0.00391 (≈ 0.00351 µg/mL)	1 (≈ 0.898 µg/mL)			
CO[C@H]1/C=C/O[C@@]2(C)Oc3c(C)c(O)c4c(=O)c(c5oc6cc(OCCN7CCCCC7)ccc6nc-5c4c3C2=O)NC(=O)/C(C)=C\C=C\[C@H](C)[C@H](O)[C@@H](C)[C@@H](O)[C@@H](C)[C@H](OC(C)=O)[C@@H]1C [Analog 16m]	0.00391 (≈ 0.00357 µg/mL)	1 (≈ 0.912 µg/mL)			
CO[C@H]1/C=C/O[C@@]2(C)Oc3c(C)c(O)c4c(=O)c(c5oc6cc(OCCN7CCCCCC7)ccc6nc-5c4c3C2=O)NC(=O)/C(C)=C\C=C\[C@H](C)[C@H](O)[C@@H](C)[C@@H](O)[C@@H](C)[C@H](OC(C)=O)[C@@H]1C [Analog 16n]	0.0156 (≈ 0.0144 µg/mL)	1 (≈ 0.926 µg/mL)			
CO[C@H]1/C=C/O[C@@]2(C)Oc3c(C)c(O)c4c(=O)c(c5oc6cc(OCCCN(C)C)ccc6nc-5c4c3C2=O)NC(=O)/C(C)=C\C=C\[C@H](C)[C@H](O)[C@@H](C)[C@@H](O)[C@@H](C)[C@H](OC(C)=O)[C@@H]1C [Analog 16o]	0.00391 (≈ 0.00346 µg/mL)	0.2 (≈ 0.177 µg/mL)			
CO[C@H]1/C=C/O[C@@]2(C)Oc3c(C)c(O)c4c(=O)c(c5oc6cc(OCCCCN(C)C)ccc6nc-5c4c3C2=O)NC(=O)/C(C)=C\C=C\[C@H](C)[C@H](O)[C@@H](C)[C@@H](O)[C@@H](C)[C@H](OC(C)=O)[C@@H]1C [Analog 16p]	0.0156 (≈ 0.014 µg/mL)	1 (≈ 0.9 µg/mL)			
CO[C@H]1/C=C/O[C@@]2(C)Oc3c(C)c(O)c4c(=O)c(c5oc6cc(OCCN7CC8CCC7C8)ccc6nc-5c4c3C2=O)NC(=O)/C(C)=C\C=C\[C@H](C)[C@H](O)[C@@H](C)[C@@H](O)[C@@H](C)[C@H](OC(C)=O)[C@@H]1C [Analog 16q]	0.00391 (≈ 0.00361 µg/mL)	1 (≈ 0.924 µg/mL)			
CO[C@H]1/C=C/O[C@@]2(C)Oc3c(C)c(O)c4c(=O)c(c5oc6cc(OCCNCCOCCN7CC7)ccc6nc-5c4c3C2=O)NC(=O)/C(C)=C\C=C\[C@H](C)[C@H](O)[C@@H](C)[C@@H](O)[C@@H](C)[C@H](OC(C)=O)[C@@H]1C [Analog 16r]			0.0156 (≈ 0.0149 µg/mL)	1 (≈ 0.957 µg/mL)	
CO[C@H]1/C=C/O[C@@]2(C)Oc3c(C)c(O)c4c(=O)c(c5oc6cc(OCCOCCN(C)C)ccc6nc-5c4c3C2=O)NC(=O)/C(C)=C\C=C\[C@H](C)[C@H](O)[C@@H](C)[C@@H](O)[C@@H](C)[C@H](OC(C)=O)[C@@H]1C [Analog 16s]	0.0625 (≈ 0.0573 µg/mL)	1 (≈ 0.916 µg/mL)			
CCN(CC)CCOc1ccc2nc3c4c5c6c(C)c(O)c4c(=O)c(c-3oc2c1)NC(=O)/C(C)=C\C=C\[C@H](C)[C@H](O)[C@@H](C)[C@@H](O)[C@@H](C)[C@H](OC(C)=O)[C@H](C)[C@@H](OC)/C=C/O[C@@](C)(O6)C5=O [Analog 16t]	0.0625 (≈ 0.0563 µg/mL)	1 (≈ 0.9 µg/mL)			
CO[C@H]1/C=C/O[C@@]2(C)Oc3c(C)c(O)c4c(=O)c(c5oc6cc(OCCN(C(C)C)C(C)C)ccc6nc-5c4c3C2=O)NC(=O)/C(C)=C\C=C\[C@H](C)[C@H](O)[C@@H](C)[C@@H](O)[C@@H](C)[C@H](OC(C)=O)[C@@H]1C [Analog 16u]	1 (≈ 0.928 µg/mL)	1 (≈ 0.928 µg/mL)			
CO[C@H]1/C=C/O[C@@]2(C)Oc3c(C)c(O)c4c(=O)c(c5oc6cc(OCCN(C)c7ccccn7)ccc6nc-5c4c3C2=O)NC(=O)/C(C)=C\C=C\[C@H](C)[C@H](O)[C@@H](C)[C@@H](O)[C@@H](C)[C@H](OC(C)=O)[C@@H]1C [Analog 16v]	0.0625 (≈ 0.0584 µg/mL)	1 (≈ 0.935 µg/mL)			
CO[C@H]1/C=C/O[C@@]2(C)Oc3c(C)c(O)c4c(=O)c(c5oc6cc(OCc7ccccc7CN(C)C)ccc6nc-5c4c3C2=O)NC(=O)/C(C)=C\C=C\[C@H](C)[C@H](O)[C@@H](C)[C@@H](O)[C@@H](C)[C@H](OC(C)=O)[C@@H]1C [Analog 16w]	0.0625 (≈ 0.0593 µg/mL)	> 1			
CO[C@H]1/C=C/O[C@@]2(C)Oc3c(C)c(O)c4c(=O)c(c5oc6cc(OCCNC(C)=O)ccc6nc-5c4c3C2=O)NC(=O)/C(C)=C\C=C\[C@H](C)[C@H](O)[C@@H](C)[C@@H](O)[C@@H](C)[C@H](OC(C)=O)[C@@H]1C [Analog 16x]	0.000977 (≈ 0.000866 µg/mL)	> 1			
CO[C@H]1/C=C/O[C@@]2(C)Oc3c(C)c(O)c4c(=O)c(c5oc6cc(OCCn7ccnc7)ccc6nc-5c4c3C2=O)NC(=O)/C(C)=C\C=C\[C@H](C)[C@H](O)[C@@H](C)[C@@H](O)[C@@H](C)[C@H](OC(C)=O)[C@@H]1C [Analog 16y]	0.0156 (≈ 0.014 µg/mL)	> 1			
CO[C@H]1/C=C/O[C@@]2(C)Oc3c(C)c(O)c4c(=O)c(c5oc6cc(OCCN7CCC7)ccc6nc-5c4c3C2=O)NC(=O)/C(C)=C\C=C\[C@H](C)[C@H](O)[C@@H](C)[C@@H](O)[C@@H](C)[C@H](OC(C)=O)[C@@H]1C [Analog 16z-1]	0.00391 (≈ 0.00346 µg/mL)	1 (≈ 0.884 µg/mL)			
CO[C@H]1/C=C/O[C@@]2(C)Oc3c(C)c(O)c4c(=O)c(c5oc6cc(OCCN(C)C(C)=O)ccc6nc-5c4c3C2=O)NC(=O)/C(C)=C\C=C\[C@H](C)[C@H](O)[C@@H](C)[C@@H](O)[C@@H](C)[C@H](OC(C)=O)[C@@H]1C [Analog 16z]	0.00391 (≈ 0.00352 µg/mL)	> 1			
CO[C@H]1/C=C/O[C@@]2(C)Oc3c(C)c(O)c4c(=O)c(c5oc6cc(F)ccc6nc-5c4c3C2=O)NCC(=O)/C(C)=C\C=C\[C@H](C)[C@H](O)[C@@H](C)[C@@H](O)[C@@H](C)[C@H](OC(C)=O)[C@@H]1C [Analog P3]					0.0156
CO[C@H]1/C=C/O[C@@]2(C)Oc3c(C)c(O)c4c(=O)c(c5oc6cc(N7CCC(N(C)C)CC7)cc(O)c6nc-5c4c3C2=O)NC(=O)/C(C)=C\C=C\[C@H](C)[C@H](O)[C@@H](C)[C@@H](O)[C@@H](C)[C@H](OC(C)=O)[C@@H]1C [Rifalog, reference compound]	0.000977 (≈ 0.000906 µg/mL)				

Reference: US11666658B2, “Rifamycin analogs and antibody-drug conjugates thereof” (Regeneron Pharmaceuticals, Inc., priority 2018, dated 2023)
